Here are results for 1 compound from paper PMC12250347, “Calcium-dependent pathway as a primary cause of hypoxic RGC damage in monkey retinal explants” (PLOS One, 2025).

Experiment [1] concerns RGCs in monkey retinal explants. Set-up: method as in PMID 26393472, PMID 33156340. The settings on record: human and monkey retinal explants treated with hypoxia; cited from earlier work.
In experiment [2] the test system is calpain 1 activation and proteolysis of α-spectrin. Set-up: method as in PMID 26393472. Conditions: immunoblotting of hypoxic retinal explants; cited from earlier work.
In experiment [3] the test system is calpains 1 and 2 in monkey retinal lysate. Kind of experiment: In vitro inhibitory assay of calpains from retinal lysate (CaCl2, immunoblotting). The class given is biochemical. The settings on record: non-cultured monkey retina lysate, 10 mM CaCl2, 2 hr, 37°C; inhibitor at 1, 10 and 100 µM. The method, then:
Each retinal explant was sonicated in RIPA Lysis and Extraction Buffer (Thermo Fisher Scientific), with protease inhibitors cocktail (Complete Mini-EDTA-free; MilliporeSigma). Protein concentrations in lysates were measured by BCA assay (Pierce BCA Protein Assay Kit, Thermo Fisher Scientific) using bovine serum albumin as a standard. For immunoblotting, 5 μg of each sample was loaded and run on 4% to 12% gradient or 10% SDS-PAGE gels (NuPAGE Bis-Tris Protein Gels, Thermo Fisher Scientific) with 2-(N-morpholino)ethanesulfonic acid buffer or 3-(N-morpholino) propanesulfonic acid buffer (Thermo Fisher Scientific). Proteins were then electrotransferred to a polyvinylidene fluoride membrane (MilliporeSigma) at 100 V for 60 min or 1.5 hr. Membranes were then blocked with 5% skim milk in Tris-buffer saline (Bio-Rad Laboratories, Hercules, CA, USA) containing 0.05% Tween 20. Each membrane was probed with primary antibodies against α-spectrin (1:2000 dilution, Enzo Life Sciences, Farmingdale, NY, USA), SBDP150 (1:1000 dilution, Senju Pharmaceutical), calpain 1 (1:1000 dilution, Thermo Fisher Scientific), calpain 2 (1:500, GeneTex, Irvine, CA, USA), cathepsin K (1:500 dilution, Abcam), and β-actin (1:1000 dilution, Merck). For calpain 1, immunoreactivity was visualized using a secondary antibody conjugated to alkaline phosphatase and the AP Conjugate Substrate Kit (Bio-Rad Laboratories). For other proteins, immunoreactivities were visualized using secondary antibodies conjugated with rabbit (Santa Cruz Biotechnology) or mouse horseradish peroxidase enzyme (Cytiva, Wilmington, DE, USA) and ECL Plus detection reagents (Cytiva). Images of the membranes were captured with FluorChem FC2 imager (Cell Biosciences, Santa Clara, CA, USA). The conversion of pro-cathepsin K (38 kDa) to its mature form (27 kDa) was used as an indicator of cathepsin K activation.
To confirm the isozyme specificities of calpain inhibitors in vitro, non-cultured monkey retinas were sonicated in a buffer containing 20 mM Tris (pH 7.5), 5 mM EGTA, 5 mM EDTA, 2 mM DTE. […]
On the technique in general: A western blot detects proteins with antibodies after separation by electrophoresis.

As to `COCCOCCOC(=O)N[C@@H](CC(C)C)C(=O)N[C@@H](Cc1ccccc1)C(=O)C(=O)NC1CC1` [SNJ-1945], the “Effect on RGC damage in hypoxic retinal explants” value in experiment [1] is “partially inhibited RGC damage”. Also, in experiment [2], the “Effect on autolysis of calpain 1 in hypoxic retinal explants” value is “inhibited the autolysis of calpain 1” and the “Effect on autolysis of calpain 2 in hypoxic retinal explants” value is “did not affect”. The “Effect on calcium-induced activation (autolysis) of calpains 1 and 2 and SBDP150 in retinal lysate” value in experiment [3] was “inhibited the activation of both calpain 1 and calpain 2 in a dose-dependent manner”.
